ChEMBL document CHEMBL1201862, “PubChem BioAssay data set” (2004)
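Dose response: 5 concentrations. Exposure: 48 h. Format: 96-well plates. Endpoint: linear interpolation; highest concentration if not reached. GI50 is the concentration that inhibits growth by half.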 Calls of active or inactive are those of the source. No stated cut-off is given here; in the data, active = GI50 up to about 1.1 µM and inactive = higher.

Key:
Assay in all cases: NCI-60 cell line screen, 48 h
786-0 = system: 786-0
ACHN = system: ACHN
COLO 205 = system: COLO 205
DU-145 = system: DU-145
HCT-116 = system: HCT-116
HCT-15 = system: HCT-15
HOP-62 = system: HOP-62
HT-29 = system: HT-29
MDA-N = system: MDA-N
NCI-H23 = system: NCI-H23
NCI-H522 = system: NCI-H522
NCI/ADR-RES = system: NCI/ADR-RES
OVCAR-3 = system: OVCAR-3
PC-3 = system: PC-3
SF-295 = system: SF-295
SK-MEL-2 = system: SK-MEL-2
SW-620 = system: SW-620
OVCAR-4 = system: OVCAR-4
SK-MEL-28 = system: SK-MEL-28
RPMI-8226 = system: RPMI-8226

Measured: GI50

O=C(O)c1cc(CCc2ccc(O)c(O)c2)ccc1O
> 100 µM: HCT-15
inactive: 786-0 > 100 µM | ACHN > 100 µM | COLO 205 > 100 µM | DU-145 > 100 µM | HCT-116 > 100 µM | HOP-62 > 100 µM | HT-29 > 100 µM | MDA-N 18.4 µM | NCI-H23 > 100 µM | NCI-H522 > 100 µM | NCI/ADR-RES > 100 µM | OVCAR-3 > 100 µM | PC-3 > 100 µM | SF-295 > 100 µM | SK-MEL-2 > 100 µM | SW-620 > 100 µM

C[N+](C)([O-])Cc1cc(-c2ccccc2)ccc1O
inactive: 786-0 > 100 µM | ACHN > 100 µM | DU-145 > 100 µM | HCT-116 > 100 µM | HOP-62 > 100 µM | HT-29 > 100 µM | NCI-H23 > 100 µM | NCI-H522 > 100 µM | NCI/ADR-RES > 100 µM | OVCAR-3 > 100 µM | OVCAR-4 > 100 µM | PC-3 > 100 µM | SF-295 > 100 µM | SK-MEL-28 > 100 µM | SK-MEL-2 > 100 µM | SW-620 > 100 µM
> 100 µM: HCT-15

CCN1C[C@]2(COC)[C@H](O)C[C@H](OC)[C@]34C1[C@H]([C@H](OC)[C@H]23)[C@]1(OC(C)=O)[C@H]2[C@@H](OC(=O)c3ccccc3)[C@](O)(C[C@H]24)[C@@H](OC)[C@@H]1O
inactive: 786-0 > 100 µM | ACHN > 100 µM | COLO 205 > 100 µM | DU-145 > 100 µM | HCT-116 > 100 µM | HT-29 > 100 µM | NCI-H23 > 100 µM | NCI-H522 > 100 µM | NCI/ADR-RES > 100 µM | OVCAR-4 > 100 µM | PC-3 > 100 µM | SF-295 > 100 µM | SK-MEL-28 > 100 µM | SK-MEL-2 > 100 µM | SW-620 > 100 µM
> 100 µM: HCT-15

OC1CC(O)c2c(Cl)sc(Cl)c21 (stereo unspecified)
60.5 µM: HCT-15
inactive: 786-0 34.4 µM | ACHN 33.2 µM | COLO 205 18.2 µM | DU-145 43.4 µM | HCT-116 31.4 µM | HOP-62 21.2 µM | HT-29 17.5 µM | MDA-N > 100 µM | NCI-H23 21.2 µM | NCI-H522 23 µM | NCI/ADR-RES 43.6 µM | OVCAR-3 14.8 µM | OVCAR-4 8.79 µM | SF-295 8.41 µM | SK-MEL-28 29.9 µM | SK-MEL-2 19.5 µM | SW-620 44.2 µM

CC(=O)CC1=C(OC(C)C)C2(OCCO2)C1O (stereo unspecified)
inactive: 786-0 > 100 µM | ACHN > 100 µM | COLO 205 > 100 µM | DU-145 > 100 µM | HCT-116 > 100 µM | HOP-62 > 100 µM | HT-29 > 100 µM | MDA-N > 100 µM | NCI-H23 > 100 µM | NCI-H522 > 100 µM | OVCAR-3 > 100 µM | OVCAR-4 > 100 µM | PC-3 > 100 µM | SF-295 > 100 µM | SK-MEL-28 > 100 µM | SK-MEL-2 > 100 µM | SW-620 > 100 µM
> 100 µM: HCT-15

Cc1cc2cc3c(Cl)c(CCCl)c(C)nc3cc2c(Cl)c1CCCl
24.9 µM: HCT-15
inactive: 786-0 24.5 µM | ACHN 20.9 µM | COLO 205 16.6 µM | DU-145 21.6 µM | HCT-116 15.8 µM | HOP-62 13.8 µM | HT-29 18.5 µM | NCI-H23 21.8 µM | NCI-H522 19.2 µM | NCI/ADR-RES 22.9 µM | OVCAR-3 13.5 µM | OVCAR-4 18.1 µM | PC-3 14.4 µM | RPMI-8226 14 µM | SF-295 17.2 µM | SK-MEL-28 18 µM | SW-620 24.8 µM

Brc1ccc2c(c1)-c1nc3nc4c(cc3cc1CC2)CCc1ccc(Br)cc1-4
inactive: 786-0 > 100 µM | ACHN > 100 µM | COLO 205 > 100 µM | HCT-116 > 100 µM | HOP-62 > 100 µM | MDA-N > 100 µM | NCI-H23 > 100 µM | NCI-H522 > 100 µM | NCI/ADR-RES > 100 µM | OVCAR-3 > 100 µM | PC-3 > 100 µM | RPMI-8226 > 100 µM | SF-295 > 100 µM | SK-MEL-28 > 100 µM | SK-MEL-2 > 100 µM | SW-620 > 100 µM
> 100 µM: HCT-15
active: OVCAR-4 0.47 µM

OC(c1ccc(C(F)(F)F)cc1)C(F)(F)c1nc2ccccc2o1 (stereo unspecified)
> 100 µM: HCT-15
inactive: 786-0 > 100 µM | ACHN > 100 µM | COLO 205 > 100 µM | DU-145 > 100 µM | HCT-116 > 100 µM | HOP-62 > 100 µM | HT-29 > 100 µM | NCI-H23 > 100 µM | NCI/ADR-RES > 100 µM | OVCAR-4 > 100 µM | PC-3 > 100 µM | RPMI-8226 > 100 µM | SF-295 > 100 µM | SK-MEL-28 > 100 µM | SK-MEL-2 > 100 µM | SW-620 > 100 µM

O=[N+]([O-])/C(C(Cl)=C(Cl)Cl)=C(/Nc1cccc2cccnc12)n1nnc2ccccc21
inactive: 786-0 14.3 µM | ACHN 19.7 µM | COLO 205 17.3 µM | HCT-116 19.3 µM | HOP-62 19.2 µM | HT-29 17.7 µM | MDA-N 13.9 µM | NCI-H23 15.5 µM | NCI/ADR-RES 21.8 µM | OVCAR-3 8.18 µM | OVCAR-4 17.2 µM | PC-3 19.2 µM | RPMI-8226 24.5 µM | SF-295 17.9 µM | SK-MEL-28 18.4 µM | SK-MEL-2 15.3 µM | SW-620 15.8 µM
10.8 µM: HCT-15

O=C(O)c1ccccc1/C=C1\Cc2ccc3c(c2C1=O)CCCC3
37.1 µM: HCT-15
inactive: 786-0 98.9 µM | ACHN 36.5 µM | COLO 205 34.4 µM | DU-145 41.4 µM | HCT-116 30.1 µM | HOP-62 49.7 µM | HT-29 50.6 µM | NCI-H23 26.1 µM | NCI-H522 25.2 µM | NCI/ADR-RES 32.1 µM | OVCAR-3 31 µM | OVCAR-4 41.6 µM | RPMI-8226 26.9 µM | SF-295 31.6 µM | SK-MEL-28 39.2 µM | SK-MEL-2 31.3 µM | SW-620 30.8 µM

COc1cccc2c1c1ccc3c(c1n2C)C(=O)C=CC3=O
inactive: 786-0 17.3 µM | ACHN 15 µM | COLO 205 6.15 µM | HCT-116 14.2 µM | HOP-62 > 100 µM | HT-29 2.43 µM | NCI-H23 16.1 µM | NCI-H522 3.89 µM | OVCAR-3 16.3 µM | OVCAR-4 17.5 µM | RPMI-8226 2.81 µM | SF-295 > 100 µM | SK-MEL-28 19 µM | SK-MEL-2 16.9 µM | SW-620 12.1 µM
17.7 µM: HCT-15

CCCCC1=CC1(C#N)[N+](=O)[O-] (stereo unspecified)
inactive: 786-0 72.4 µM | ACHN > 100 µM | COLO 205 > 100 µM | DU-145 > 100 µM | HCT-116 33.1 µM | HOP-62 > 100 µM | HT-29 > 100 µM | NCI-H23 > 100 µM | NCI-H522 45.6 µM | NCI/ADR-RES > 100 µM | OVCAR-3 > 100 µM | OVCAR-4 > 100 µM | PC-3 > 100 µM | RPMI-8226 25.1 µM | SF-295 > 100 µM | SK-MEL-28 > 100 µM | SW-620 31.8 µM
> 100 µM: HCT-15

O=C(CSc1nccc(=O)[nH]1)c1ccccc1
inactive: 786-0 > 100 µM | ACHN > 100 µM | COLO 205 > 100 µM | DU-145 > 100 µM | HCT-116 > 100 µM | HOP-62 63.1 µM | HT-29 > 100 µM | NCI-H23 > 100 µM | NCI-H522 > 100 µM | NCI/ADR-RES 37.2 µM | OVCAR-3 40.7 µM | OVCAR-4 > 100 µM | PC-3 > 100 µM | SF-295 60.4 µM | SK-MEL-28 > 100 µM | SK-MEL-2 > 100 µM | SW-620 > 100 µM
> 100 µM: HCT-15

c1ccc(/N=C2\c3ccccc3CN2c2ccccn2)nc1
inactive: 786-0 > 100 µM | ACHN > 100 µM | COLO 205 58.6 µM | DU-145 > 100 µM | HCT-116 74.3 µM | HOP-62 > 100 µM | HT-29 34.2 µM | MDA-N > 100 µM | NCI-H23 71.9 µM | NCI-H522 61.7 µM | OVCAR-3 > 100 µM | OVCAR-4 > 100 µM | PC-3 70.1 µM | RPMI-8226 78 µM | SF-295 > 100 µM | SK-MEL-28 > 100 µM | SK-MEL-2 > 100 µM | SW-620 > 100 µM
> 100 µM: HCT-15

COc1cc(CCC(=O)O)c2cc3ccccc3cc2c1O
18.2 µM: HCT-15
inactive: 786-0 16.8 µM | ACHN 17.3 µM | COLO 205 18 µM | HCT-116 17.2 µM | HOP-62 17.6 µM | HT-29 21.1 µM | MDA-N 17.3 µM | NCI-H23 19.1 µM | NCI-H522 20.7 µM | NCI/ADR-RES 25.6 µM | OVCAR-3 21.4 µM | OVCAR-4 15.6 µM | PC-3 18.5 µM | RPMI-8226 12.4 µM | SF-295 20 µM | SK-MEL-28 22.4 µM | SK-MEL-2 18.3 µM | SW-620 21.4 µM

COc1ccc([Se][Se]c2ccc(OC)cc2OC)c(OC)c1
inactive: 786-0 2.81 µM | ACHN 2.86 µM | COLO 205 6.79 µM | HCT-116 2.75 µM | HOP-62 > 10 µM | HT-29 3.14 µM | NCI-H23 2.92 µM | NCI-H522 1.86 µM | OVCAR-3 3.52 µM | OVCAR-4 2.1 µM | RPMI-8226 2.48 µM | SF-295 2.1 µM | SK-MEL-28 2.16 µM | SK-MEL-2 4.08 µM | SW-620 2.59 µM
1.84 µM: HCT-15
